Drawing on ChEMBL document CHEMBL1201862, “PubChem BioAssay data set” (2004), this text covers IC50, AC50 and EC50 for ten compounds.

Active and inactive are the calls of the source.

Assay [1] deals with Diphosphomevalonate decarboxylase (Streptococcus pneumoniae serotype 2 (strain D39 / NCTC 7466), UniProt Q9FD53). Briefly: S. pneumoniae DPM-DC inhibition retest, confirmation, biochemical, cuvette format, coupled NADH fluorescence (AID 1028). The assay is classed as functional.
The target of assay [2] is Protein-tyrosine kinase 2-beta (Homo sapiens, UniProt Q14289).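 Also: potency of inhibitors of PYK2 kinase phosphorylation of poly-GT substrate.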
The target of the next assay is Cytochrome P450 2C9 (Homo sapiens, UniProt P11712).
Assay [3] concerns the target T1, Cytochrome P450 2C19 (Homo sapiens, UniProt P33261). Put plainly: Cytochrome panel assay with activity outcomes. Panel member name: p450-cyp2c19 Compounds with AC50 equal or less than 10 uM are considered active. The assay is classed as functional. As to conditions: read-out: AC50.
Another assay addresses Cytochrome P450 2D6 (Homo sapiens, UniProt P10635).
In assay [4] the target is 5-hydroxytryptamine receptor 1A (Homo sapiens, UniProt P08908). The format is functional.
The target of a further assay is Galanin receptor type 2 (Homo sapiens, UniProt O43603). Put plainly: Dose Response cell-based high-throughput screening assay to identify antagonists of galanin receptor 2 (GALR2). [Related pubchem assays: 828, 866 ]. The format is functional.
The nature of assay [5]: control 3'UTR Renilla luciferase suppression, dose response, counter-screen for Shn3 inhibitor project, cell-based, Clone20-Shn3RL, cherry-picked (AID 624133). The assay is classed as functional. In general terms: Counterscreens check selectivity or assay interference.
The nature of assay [6]: Shn3 3'UTR reporter inhibitors, dose response, cell-based, Clone20 osteoblasts, firefly luciferase, cherry-picked (AID 624132).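 Also: firefly luciferase luminescence from reporter carrying the Shn3 3'UTR in osteoblasts.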 The assay is classed as functional.
Another assay has as its system INS1. Put plainly: beta cell apoptosis inhibitors, cytokine rescue, dose response, luminescence, retest (AID 449756).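 Also: cell death triggered by IL-1 beta plus TNF-alpha plus IFN-gamma mixture; protective hits raise ATP signal compared with cytokine alone wells.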 To be noted: Rattus norvegicus. The format is functional, cell-based.
Assay [7] is described as follows: HepG2 cell cytotoxicity, dose response, cytotoxicity control for Shn3 inhibitor project, CellTiter-Glo, cherry-picked (AID 624134). The assay is classed as functional, cell-based.
Assay [8] deals with T2, Aryl hydrocarbon receptor (Homo sapiens, UniProt P35869).
T2 sequence (P35869 whole entry): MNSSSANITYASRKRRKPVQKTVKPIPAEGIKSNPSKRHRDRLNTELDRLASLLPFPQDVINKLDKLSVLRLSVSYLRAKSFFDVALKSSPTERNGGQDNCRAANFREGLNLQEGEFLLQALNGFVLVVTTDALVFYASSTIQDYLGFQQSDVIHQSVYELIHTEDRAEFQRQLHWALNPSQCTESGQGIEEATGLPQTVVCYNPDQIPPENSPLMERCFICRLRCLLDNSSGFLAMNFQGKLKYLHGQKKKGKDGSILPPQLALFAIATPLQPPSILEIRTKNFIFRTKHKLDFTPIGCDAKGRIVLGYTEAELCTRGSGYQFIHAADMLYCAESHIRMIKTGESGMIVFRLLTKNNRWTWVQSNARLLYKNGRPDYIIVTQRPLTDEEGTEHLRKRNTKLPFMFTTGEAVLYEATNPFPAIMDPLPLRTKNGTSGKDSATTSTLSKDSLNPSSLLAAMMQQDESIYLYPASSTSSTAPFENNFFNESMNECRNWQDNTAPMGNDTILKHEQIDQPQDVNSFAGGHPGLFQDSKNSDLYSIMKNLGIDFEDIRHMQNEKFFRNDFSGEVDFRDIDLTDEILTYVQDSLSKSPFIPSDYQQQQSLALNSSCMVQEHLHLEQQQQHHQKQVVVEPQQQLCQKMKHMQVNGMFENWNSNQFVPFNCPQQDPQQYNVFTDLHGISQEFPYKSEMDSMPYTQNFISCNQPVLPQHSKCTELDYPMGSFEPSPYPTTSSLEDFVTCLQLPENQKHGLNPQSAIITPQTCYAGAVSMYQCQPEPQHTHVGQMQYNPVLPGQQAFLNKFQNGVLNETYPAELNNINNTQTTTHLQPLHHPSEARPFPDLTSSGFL
Briefly: Luminescence-based cell-based high throughput dose response assay for activators of the Aryl Hydrocarbon Receptor (AHR). [Related pubchem assays: 2796 (Primary screen (AHR activators in singlicate)), 2845 (Confirmation screen (AHR activators in triplicate)), 434939 (Counterscreen (PXR activators in triplicate)), 2804 (Summary (AHR activators))]. The format is ADME.

Assay [9] deals with Mitogen-activated protein kinase 10 (Homo sapiens, UniProt P53779). Put plainly: Dose response biochemical screening assay for inhibitors of c-Jun N-Terminal Kinase 3 (JNK3). [Related pubchem assays: 746 ].
For assay [10], the target named is Peroxisome proliferator-activated receptor gamma/Nuclear receptor corepressor 2 (Homo sapiens, UniProt P37231+Q9Y618). Briefly: Counterscreen for NR2E3 inverse agonists: TR-FRET-based biochemical high throughput dose response assay to identify inverse agonists of the interaction between peroxisome proliferator-activated receptor gamma (PPARg) and nuclear receptor co-repressor 2 (NCOR2). The format is functional.

The target of assay [11] is Photoreceptor-specific nuclear receptor (Homo sapiens, UniProt Q9Y5X4). Briefly: NR2E3 inverse agonists, dose response, biochemical, TR-FRET (AID 463256). The format is functional. (In general: Time-resolved FRET reads energy transfer from a long-lived donor to a nearby acceptor.)
The target in another assay is T3, Streptokinase A (Streptococcus pyogenes serotype M1, UniProt P10520).
T3 sequence (P10520 whole entry): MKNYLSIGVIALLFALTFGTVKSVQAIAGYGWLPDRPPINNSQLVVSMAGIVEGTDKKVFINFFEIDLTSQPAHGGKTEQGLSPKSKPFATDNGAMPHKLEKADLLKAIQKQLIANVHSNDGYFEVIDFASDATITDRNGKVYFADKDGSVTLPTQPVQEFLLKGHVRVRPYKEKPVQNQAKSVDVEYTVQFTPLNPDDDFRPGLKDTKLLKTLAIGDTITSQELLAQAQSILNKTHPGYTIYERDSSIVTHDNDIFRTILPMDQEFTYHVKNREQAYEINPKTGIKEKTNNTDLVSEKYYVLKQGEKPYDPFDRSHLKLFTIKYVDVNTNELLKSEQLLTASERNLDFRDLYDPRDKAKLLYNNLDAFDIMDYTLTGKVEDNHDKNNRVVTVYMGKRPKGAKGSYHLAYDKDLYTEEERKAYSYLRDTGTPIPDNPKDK
Put plainly: S. pyogenes streptokinase expression inhibitors, potency, dose response, plasminogen activation absorbance, OD405 (AID 1914).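 Also: secreted streptokinase activity via plasminogen activation per viability signal from cell pellet.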 The format is functional, Streptococcus pyogenes M1 GAS.

The next assay concerns Streptococcus. Put plainly: Group A Streptococcus viability loss, dose response, counter-screen for streptokinase expression inhibitor project, luminescence, BacTiterGlo (AID 1915).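 Also: potency for reduction of bacterial viability or growth.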 The format is functional, organism-based.
Assay [12] has as its target T4, Tyrosine-protein phosphatase non-receptor type 7 (Homo sapiens, UniProt P35236).
T4 sequence (P35236 whole entry): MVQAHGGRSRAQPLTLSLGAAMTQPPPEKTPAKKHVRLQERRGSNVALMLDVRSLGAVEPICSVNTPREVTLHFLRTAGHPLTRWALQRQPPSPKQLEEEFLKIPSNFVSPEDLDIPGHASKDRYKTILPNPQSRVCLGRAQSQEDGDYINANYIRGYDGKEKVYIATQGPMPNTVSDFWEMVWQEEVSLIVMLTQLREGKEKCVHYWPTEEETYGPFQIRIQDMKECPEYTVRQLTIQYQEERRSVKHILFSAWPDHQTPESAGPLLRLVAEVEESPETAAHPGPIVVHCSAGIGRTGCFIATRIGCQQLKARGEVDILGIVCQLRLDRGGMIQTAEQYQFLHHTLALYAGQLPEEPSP
Put plainly: inhibitors of human HePTP phosphatase, […], biochemical, absorbance, leukemia target (AID 521). The format is functional.

A short description of assay [13]: cytotoxicity in HEK-293T cells, dose response, cytotoxicity control for TCR NF-kB inhibitor project, luminescence, T-cell screen hits (AID 489026).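 Also: cells exposed to compound about 14 hours before the viability readout.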 The assay is classed as functional, cell-based.
A further assay has as its target Aspartyl aminopeptidase (Plasmodium falciparum 3D7, UniProt Q8I2J3). Put plainly: Counterscreen for inhibitors of M1 and M17 aminopeptidases: QFRET-based biochemical high throughput dose response assay for inhibitors of the Plasmodium falciparum M18 Aspartyl Aminopeptidase (PFM18AAP). [Related PubChem assays: 1619 (Screening assay (M17LAP inhibitors).), 1445 (Screening assay (M1AAP inhibitors).)].

The target of another assay is Procathepsin L (Homo sapiens, UniProt P07711). Put plainly: cathepsin L inhibitors, dose response, counter-screen for M1/M17 aminopeptidase inhibitor project, biochemical, QFRET, 1536-well (AID 2214).
In the next assay the target is T5, Leucine aminopeptidase (Plasmodium falciparum 3D7, UniProt Q8IL11).
T5 sequence (Q8IL11 whole entry): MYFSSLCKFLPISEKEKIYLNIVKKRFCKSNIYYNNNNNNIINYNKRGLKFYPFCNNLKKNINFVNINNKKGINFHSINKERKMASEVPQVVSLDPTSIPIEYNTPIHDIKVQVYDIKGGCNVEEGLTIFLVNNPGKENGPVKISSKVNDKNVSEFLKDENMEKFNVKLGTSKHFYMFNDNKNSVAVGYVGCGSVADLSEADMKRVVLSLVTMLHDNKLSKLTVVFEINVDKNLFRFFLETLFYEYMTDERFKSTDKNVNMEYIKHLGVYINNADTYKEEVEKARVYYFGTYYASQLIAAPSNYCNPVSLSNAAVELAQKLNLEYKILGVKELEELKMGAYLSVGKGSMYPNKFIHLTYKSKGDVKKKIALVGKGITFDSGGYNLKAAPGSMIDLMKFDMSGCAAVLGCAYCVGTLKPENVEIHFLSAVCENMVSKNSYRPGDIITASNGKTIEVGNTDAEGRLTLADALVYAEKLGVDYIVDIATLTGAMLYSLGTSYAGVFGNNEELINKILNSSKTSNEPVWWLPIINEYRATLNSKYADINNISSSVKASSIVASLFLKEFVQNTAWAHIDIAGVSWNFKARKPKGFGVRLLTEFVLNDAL
Briefly: P. falciparum M17LAP inhibitors, primary screen, biochemical, fluorogenic H-Leu-NHMec substrate, 1536-well (AID 1619). The assay is classed as functional.

Assay [14] concerns the target T1, Cytochrome P450 2C19. Put plainly: qHTS Assay for Inhibitors and Substrates of Cytochrome P450 2C19. [Related pubchem assays: 410 ]. The format is ADME. To be noted: read-out: Potency. Background: qHTS replaces the single test concentration by a dilution series.
Another assay deals with 14-3-3 protein gamma (Homo sapiens, UniProt P61981). Put plainly: modulators of 14-3-3 gamma client binding – dose response (AID 711). The format is functional.

T1 sequence (P33261 whole entry): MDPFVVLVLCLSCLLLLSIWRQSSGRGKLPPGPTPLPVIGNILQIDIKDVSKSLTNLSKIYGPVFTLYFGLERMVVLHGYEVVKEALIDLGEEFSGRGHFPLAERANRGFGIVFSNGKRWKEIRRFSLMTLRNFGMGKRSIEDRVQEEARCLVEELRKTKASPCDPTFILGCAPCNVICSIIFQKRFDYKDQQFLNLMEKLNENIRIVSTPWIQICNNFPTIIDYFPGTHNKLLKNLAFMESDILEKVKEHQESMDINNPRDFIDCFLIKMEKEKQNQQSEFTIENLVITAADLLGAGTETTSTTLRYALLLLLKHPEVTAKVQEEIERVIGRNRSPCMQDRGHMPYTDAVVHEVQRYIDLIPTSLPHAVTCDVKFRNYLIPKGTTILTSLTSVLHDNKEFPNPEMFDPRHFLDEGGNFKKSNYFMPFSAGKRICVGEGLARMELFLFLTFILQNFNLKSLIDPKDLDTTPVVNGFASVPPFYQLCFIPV
Chain of Aspartyl aminopeptidase (Q8I2J3 whole entry): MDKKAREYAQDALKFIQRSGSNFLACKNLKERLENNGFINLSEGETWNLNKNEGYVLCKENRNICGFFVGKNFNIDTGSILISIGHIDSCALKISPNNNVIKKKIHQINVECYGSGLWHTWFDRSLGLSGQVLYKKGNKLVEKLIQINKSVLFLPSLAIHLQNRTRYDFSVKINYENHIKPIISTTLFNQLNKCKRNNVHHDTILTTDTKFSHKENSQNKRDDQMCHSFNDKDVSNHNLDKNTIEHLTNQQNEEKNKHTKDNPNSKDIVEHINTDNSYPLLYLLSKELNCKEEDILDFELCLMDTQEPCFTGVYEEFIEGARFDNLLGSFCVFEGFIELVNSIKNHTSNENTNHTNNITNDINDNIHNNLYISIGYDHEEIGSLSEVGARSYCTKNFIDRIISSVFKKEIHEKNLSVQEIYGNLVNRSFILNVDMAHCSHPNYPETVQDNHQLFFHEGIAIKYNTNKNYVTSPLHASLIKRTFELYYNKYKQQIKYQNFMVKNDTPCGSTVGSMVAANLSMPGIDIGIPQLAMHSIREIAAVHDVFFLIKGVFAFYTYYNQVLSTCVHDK
Chain of Protein-tyrosine kinase 2-beta (Q14289 whole entry): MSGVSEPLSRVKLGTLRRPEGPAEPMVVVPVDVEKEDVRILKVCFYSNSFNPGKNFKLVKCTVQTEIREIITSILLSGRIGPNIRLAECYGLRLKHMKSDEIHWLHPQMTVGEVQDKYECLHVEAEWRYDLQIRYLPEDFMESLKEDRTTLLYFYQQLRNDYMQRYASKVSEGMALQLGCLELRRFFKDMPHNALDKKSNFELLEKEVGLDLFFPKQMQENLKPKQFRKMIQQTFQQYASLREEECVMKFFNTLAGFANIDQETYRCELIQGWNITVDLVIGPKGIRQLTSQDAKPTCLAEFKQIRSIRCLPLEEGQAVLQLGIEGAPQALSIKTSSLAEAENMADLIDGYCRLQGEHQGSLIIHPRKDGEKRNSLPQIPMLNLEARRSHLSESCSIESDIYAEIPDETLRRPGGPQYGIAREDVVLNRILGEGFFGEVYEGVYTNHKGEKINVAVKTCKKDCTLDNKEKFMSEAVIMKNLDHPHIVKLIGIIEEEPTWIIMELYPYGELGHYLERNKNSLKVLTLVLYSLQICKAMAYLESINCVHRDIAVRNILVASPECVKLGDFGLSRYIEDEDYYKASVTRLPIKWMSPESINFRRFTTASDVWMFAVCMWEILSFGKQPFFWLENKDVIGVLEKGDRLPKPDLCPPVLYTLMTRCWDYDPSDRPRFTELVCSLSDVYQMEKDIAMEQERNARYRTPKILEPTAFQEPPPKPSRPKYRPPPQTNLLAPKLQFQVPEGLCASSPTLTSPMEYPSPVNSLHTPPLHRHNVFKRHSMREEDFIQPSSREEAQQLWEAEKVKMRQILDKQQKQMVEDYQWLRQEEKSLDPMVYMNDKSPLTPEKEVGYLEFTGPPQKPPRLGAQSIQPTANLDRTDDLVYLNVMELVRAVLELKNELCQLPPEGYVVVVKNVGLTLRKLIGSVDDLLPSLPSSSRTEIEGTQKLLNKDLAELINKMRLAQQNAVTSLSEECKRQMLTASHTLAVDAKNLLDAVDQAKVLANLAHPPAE
Chain of Cytochrome P450 2D6 (P10635 whole entry): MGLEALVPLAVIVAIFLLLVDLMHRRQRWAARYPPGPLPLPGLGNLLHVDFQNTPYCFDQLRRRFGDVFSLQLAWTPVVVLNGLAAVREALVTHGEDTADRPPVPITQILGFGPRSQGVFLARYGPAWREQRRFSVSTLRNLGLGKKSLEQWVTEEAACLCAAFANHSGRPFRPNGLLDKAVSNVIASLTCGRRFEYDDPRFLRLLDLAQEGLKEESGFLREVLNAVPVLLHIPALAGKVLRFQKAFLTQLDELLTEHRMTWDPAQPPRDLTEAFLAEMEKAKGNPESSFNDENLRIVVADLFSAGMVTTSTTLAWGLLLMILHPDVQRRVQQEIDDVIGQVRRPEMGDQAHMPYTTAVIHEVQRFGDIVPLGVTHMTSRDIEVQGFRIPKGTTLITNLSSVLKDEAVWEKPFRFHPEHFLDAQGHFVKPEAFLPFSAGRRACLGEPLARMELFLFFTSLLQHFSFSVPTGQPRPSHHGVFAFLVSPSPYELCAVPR
Chain of Procathepsin L (P07711 whole entry): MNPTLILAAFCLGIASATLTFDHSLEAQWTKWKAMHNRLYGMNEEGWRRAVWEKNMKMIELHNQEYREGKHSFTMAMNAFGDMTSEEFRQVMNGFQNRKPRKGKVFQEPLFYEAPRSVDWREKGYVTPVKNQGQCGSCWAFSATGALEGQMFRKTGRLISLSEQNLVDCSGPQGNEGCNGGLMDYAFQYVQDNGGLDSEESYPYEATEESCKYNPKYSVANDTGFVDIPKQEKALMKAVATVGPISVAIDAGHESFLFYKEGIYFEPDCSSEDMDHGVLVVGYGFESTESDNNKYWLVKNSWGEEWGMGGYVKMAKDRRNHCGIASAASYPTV
Chain of Cytochrome P450 2C9 (P11712 whole entry): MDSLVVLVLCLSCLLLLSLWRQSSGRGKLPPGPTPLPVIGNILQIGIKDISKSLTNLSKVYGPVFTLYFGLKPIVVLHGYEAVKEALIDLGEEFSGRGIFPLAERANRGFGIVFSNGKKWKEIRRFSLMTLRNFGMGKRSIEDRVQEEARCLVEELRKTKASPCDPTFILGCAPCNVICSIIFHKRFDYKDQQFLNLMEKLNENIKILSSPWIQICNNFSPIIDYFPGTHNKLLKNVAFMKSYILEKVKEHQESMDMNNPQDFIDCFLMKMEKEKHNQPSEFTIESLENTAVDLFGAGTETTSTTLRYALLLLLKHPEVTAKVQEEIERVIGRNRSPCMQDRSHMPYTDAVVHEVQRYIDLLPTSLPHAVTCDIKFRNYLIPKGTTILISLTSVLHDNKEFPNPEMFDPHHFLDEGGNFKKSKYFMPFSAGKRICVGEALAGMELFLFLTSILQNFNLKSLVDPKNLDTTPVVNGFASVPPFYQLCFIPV
Chain of Galanin receptor type 2 (O43603 whole entry): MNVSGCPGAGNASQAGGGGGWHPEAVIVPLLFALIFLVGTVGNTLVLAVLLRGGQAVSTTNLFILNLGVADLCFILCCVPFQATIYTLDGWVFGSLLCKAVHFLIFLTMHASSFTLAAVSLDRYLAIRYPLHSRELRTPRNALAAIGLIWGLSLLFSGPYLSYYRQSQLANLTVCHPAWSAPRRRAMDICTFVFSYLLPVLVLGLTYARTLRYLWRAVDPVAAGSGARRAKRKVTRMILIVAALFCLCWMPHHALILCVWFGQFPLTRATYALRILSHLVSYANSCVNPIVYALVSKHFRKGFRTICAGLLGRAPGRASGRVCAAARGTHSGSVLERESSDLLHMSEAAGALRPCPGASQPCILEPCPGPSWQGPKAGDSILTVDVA
Chain of Mitogen-activated protein kinase 10 (P53779 whole entry): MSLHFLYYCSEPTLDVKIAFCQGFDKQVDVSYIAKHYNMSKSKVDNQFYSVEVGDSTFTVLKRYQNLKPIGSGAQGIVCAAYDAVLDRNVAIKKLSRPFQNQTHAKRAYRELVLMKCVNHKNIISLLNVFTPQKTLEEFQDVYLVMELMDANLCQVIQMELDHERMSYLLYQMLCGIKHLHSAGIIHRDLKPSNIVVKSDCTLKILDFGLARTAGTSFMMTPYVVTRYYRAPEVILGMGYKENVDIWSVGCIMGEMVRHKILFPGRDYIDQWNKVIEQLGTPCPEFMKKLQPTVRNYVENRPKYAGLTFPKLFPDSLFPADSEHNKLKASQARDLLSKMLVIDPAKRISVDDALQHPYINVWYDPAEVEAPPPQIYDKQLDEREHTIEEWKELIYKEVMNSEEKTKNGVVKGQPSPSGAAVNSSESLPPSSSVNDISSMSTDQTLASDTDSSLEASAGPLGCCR
Chain of Diphosphomevalonate decarboxylase (Q9FD53 whole entry): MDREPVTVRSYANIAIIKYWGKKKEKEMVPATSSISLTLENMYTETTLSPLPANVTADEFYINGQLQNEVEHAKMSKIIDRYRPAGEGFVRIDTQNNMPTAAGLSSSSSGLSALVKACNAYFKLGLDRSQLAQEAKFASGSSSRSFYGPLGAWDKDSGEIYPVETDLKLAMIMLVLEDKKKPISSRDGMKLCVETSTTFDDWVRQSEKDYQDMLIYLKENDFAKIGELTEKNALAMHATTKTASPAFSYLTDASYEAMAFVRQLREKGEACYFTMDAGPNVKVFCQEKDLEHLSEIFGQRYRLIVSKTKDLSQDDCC
Chain of 5-hydroxytryptamine receptor 1A (P08908 whole entry): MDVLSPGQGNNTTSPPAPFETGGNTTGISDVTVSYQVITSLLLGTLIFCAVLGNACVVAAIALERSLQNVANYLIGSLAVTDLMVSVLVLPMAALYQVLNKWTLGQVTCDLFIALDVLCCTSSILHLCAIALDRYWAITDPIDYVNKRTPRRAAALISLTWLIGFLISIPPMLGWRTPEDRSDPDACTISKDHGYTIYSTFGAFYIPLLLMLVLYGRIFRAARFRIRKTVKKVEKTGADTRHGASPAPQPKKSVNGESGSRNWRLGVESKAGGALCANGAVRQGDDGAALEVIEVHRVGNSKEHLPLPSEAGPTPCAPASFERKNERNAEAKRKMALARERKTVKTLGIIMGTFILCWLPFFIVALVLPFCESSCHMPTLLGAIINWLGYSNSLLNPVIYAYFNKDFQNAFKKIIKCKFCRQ

In the case of `O=C(NC1CC1)c1ccc(-n2sc3ccccc3c2=O)cc1`, the half-maximal inhibitory concentration (IC50) (in general, the concentration that gives 50% inhibition) in [1] was 11.4 µM (active).

Turning to `O=C(NCCc1c[nH]c2ccccc12)C1CCN(c2nnc(N3CCCC3=O)s2)CC1`, in [2], the 50% inhibitory concentration (IC50) was 22.7 µM (not active). Besides, the values for the AC50 on Cytochrome P450 2C9, on Cytochrome P450 2C19 [3] and on Cytochrome P450 2D6 were 10 µM (inconclusive), 7.94 µM (inconclusive) and 10 µM (inconclusive), respectively.

Consider `O=S(=O)(c1cccc(Cl)c1)N1CCCC1`, for which, in assay [4], the half-maximal effective concentration (EC50) (as a rule, the concentration needed to bring the measured effect to its halfway point) was > 50 µM (not active).

`Cc1cccc(C(=O)Nc2ccc(C(=O)/C=C/c3cccnc3)cc2)c1`: the IC50 against Galanin receptor type 2 is listed as 21.4 µM (not active). In addition, the AC50 in assay [5] was 10.7 µM (active); in assay [6] it was 6.23 µM (active); with INS1, 5.53 µM (active); in assay [7], 30.9 µM (active).

Take `NC(=O)c1oc2ccccc2c1NC(=O)c1ccc(F)cc1`: the 50% effective concentration (EC50) in assay [8] is 4.12 µM (active). Also, the half-inhibitory concentration (IC50) in assay [9] is given as 23.9 µM (not active).

Consider `COc1ccc(-n2nc(C(=O)NCC(=O)NCc3ccc(F)cc3)c3ccccc3c2=O)cc1OC`, for which the IC50 is 0.941 µM (active) in assay [10] and 1.46 µM (active) in [11].

On to `COc1cccc2sc(Nc3nnc(-c4ccccc4Cl)o3)nc12`, for which the 50% effective concentration (EC50) is > 150 µM (not active) on Streptokinase A and > 150 µM (inconclusive) in the assay with Streptococcus. The 50% inhibitory concentration (IC50) in [12] was > 100 µM (not active); in [13] it was 61.1 µM (inactive).

For the compound `Cc1c(O)n(-c2ccccc2)c(SCC(=O)Nc2ccc3c4c(cccc24)CC3)nc1=O`, the values for the IC50 against Aspartyl aminopeptidase, at Procathepsin L and at Leucine aminopeptidase were > 73.5 µM (not active), > 59.6 µM (not active) and 5.11 µM (active), respectively.

`COC(=O)C(C(C)=O)C(NC(=O)NCc1ccccc1)c1ccccc1` (centres undefined): the AC50 at Cytochrome P450 2C19 [14] was 1.26 µM (inconclusive).

For `Cc1nc2nc(Cc3ccccc3)nn2c(O)c1Cc1ccccc1`, on 14-3-3 protein gamma, the IC50 is > 50 µM (not active).
